Values joined by “and” are separate entries in the source; they are usually repeats but may differ in a detail not shown here. Identical values can stand only once.

What all share (assay type): in vivo
The test system of experiment [1] is Macrosiphum euphorbiae larvae. The experiment is described as follows: Effects on larval survival (artificial medium feeding). The following applies: for Percentage of larval survival: after 16 days of treatment; for aphicide activity on larvae compared with 0.2 mM solanidine: 0.002 mM; for aphicide properties with respect to larvae compared with solanidine: 0.02 mM. The protocol:
(§1) The Macrosiphum euphorbiae population was initiated from an apterous female provided by the Laboratory of Functional Biology, Insects and Interactions of the INRA/INSA of Villeurbanne in 2004. She was captured in 1995 on an eggplant in the Rhone-Alps region. The Macrosiphum euphorbiae aphids were raised on Desiree variety potato plants indoors at 20±1° C., 60±5% relative humidity and under a photoperiod of 16 hours of light and 8 hours of darkness.
For the tests on Macrosiphum euphorbiae larvae, adults were isolated and placed in PVC cages on artificial medium for one day in order to synchronize their lineage. Neonates (40 per experiment), less than 24 hours old, are placed in PVC cages containing artificial medium alone (control experiment) or artificial medium supplemented with 0.002, 0.02 or 0.2 mM active compound.
(§2) The individuals were monitored every two days over a period of 16 days. With each recording, the artificial medium is changed. Each cage houses five aphids.
(§3) A standard diet was used as the basis for carrying out the physiological monitoring. Its composition was described by Febvay et al. (J. Zool. 1988, 66(11), 2449-2453) and then modified according to the conditions of Down et al. (J. Insect Physiol. 1996, 42(11-12), 1035-1045) as shown in Table 2. The medium is supplemented with active compound and placed between two layers of Parafilm® in sterile conditions.
(§4) The statistical analyses were performed using the Statistica 10 software (StatSoft®). To compare aphid survival in comparison with the control, Pearson's X^2 test (α<0.05) was applied. To compare the compounds in terms of concentration and nature, Fisher's least significant difference (LSD) test was applied (α<0.05). Daily fecundity was also studied using Fisher's LSD test (α<0.05).
The biological tests were carried out on Macrosiphum euphorbiae neonates less than 24 hours old. They are placed on artificial medium containing chaconine, solanine, solanidine, 100, 101 or 102.

Experiment [2] concerns Macrosiphum euphorbiae reproduction. The experiment is described as follows: Effects on reproduction (daily fecundity per aphid). The protocol: (§5) For the tests on Macrosiphum euphorbiae adults, neonates (50 per experiment) resulting from synchronization are raised in petri dishes on leaves of Desiree variety potato plants for 10 days. Once the adult stage is reached, they are placed in PVC cages containing artificial medium alone (control experiment) or artificial medium supplemented with 0.002, 0.02 or 0.2 mM active compound.
as §2, §4
Data regarding the number of larvae resulting from parthenogenesis can be used to calculate daily fecundity per aphid. The results are presented in FIG. 3, wherein the number 10 represents the control, the reference numbers 12, 14 and 16 represent the results of compound 100 at the concentrations of 0.002, 0.02 and 0.2 mM, respectively, the reference numbers 18, 20 and 22 represent the results of compound 101 at the concentrations of 0.002, 0.02 and 0.2 mM, respectively, the reference numbers 24, 26, and 28 represent the results of compound 102 at the concentrations of 0.002, 0.02 and 0.2 mM, respectively.

Experiment [3] relates to Macrosiphum euphorbiae adults. The experiment is described as follows: Effects on adult survival (artificial medium feeding). The conditions noted are these: for Percentage of adult survival: after 16 days of treatment. The protocol:
as §1, §5, §2, §3, §4
The biological tests of compounds 100, 101 and 102 on Macrosiphum euphorbiae adults are presented in FIG. 2, and are compared to a control experiment.

For the compound `C[C@H]1CC[C@@H]2[C@@H](C)[C@H]3[C@H](C[C@H]4[C@@H]5CC=C6C[C@@H](O)CC[C@]6(C)[C@H]5CC[C@]34C)N2C1` [Solanidine, solanidine], the figures for the “Percentage of larval survival” value in experiment [1] (0.002 mM in artificial medium), in experiment [1] (0.02 mM in artificial medium) and in experiment [1] (0.2 mM in artificial medium) were 74a %, 60d % and 52b %, respectively.
Regarding `C[C@H]1CCC2[C@@H](C)C3C(CC4C5CC=C6C[C@@H](OCCCn7cc(CO[C@@H]8OC(CO)[C@H](O)C(O)C8O)nn7)CC[C@]6(C)C5CC[C@@]43C)N2C1` (stereo partly drawn) [Compound 101, 3-O-{3-[4-(β-D-galactopyranosyloxymethyl)-1,2,3-triazol-1-yl]propyl}solanidine], the “aphicide activity on larvae compared with 0.2 mM solanidine” value in experiment [1] is “lower activity than 0.2 mM solanidine”. For the same compound, the “Percentage of larval survival” value was 62a % in experiment [1] (0.002 mM in artificial medium); 33% and 33b % in experiment [1] (0.02 mM in artificial medium); 24% and 24c % in experiment [1] (0.2 mM in artificial medium). Further, the “aphicide properties with respect to larvae compared with solanidine” value (“aphicide properties … compared with solanidine” for short) in experiment [1] is recorded as “stronger than with solanidine”. The “effect on reproduction in comparison with the control” value (“effect on reproduction in comparison” for short) in experiment [2] (0.02 mM) and in experiment [2] (0.2 mM) was “significantly reduce reproduction” each time. The “Percentage of adult survival” value turned out to be 90a % in experiment [3] (0.002 mM in artificial medium), 73b % in experiment [3] (0.02 mM in artificial medium) and 54c % in experiment [3] (0.2 mM in artificial medium). Moreover, the “activity on adult survival in comparison with the control” value (shortened to “activity on adult survival”) in experiment [3] (0.02 mM) and in experiment [3] (0.2 mM) was “drop in the survival rate” throughout.
Turning to `C[C@H]1CC[C@@H]2[C@@H](C)[C@H]3[C@H](C[C@H]4[C@@H]5CC=C6C[C@@H](O[C@@H]7O[C@H](CO)[C@H](O[C@@H]8O[C@@H](C)[C@H](O)[C@@H](O)[C@H]8O)[C@H](O)[C@@H]7O[C@@H]7O[C@@H](C)[C@@H](O)[C@@H](O)[C@H]7O)CC[C@]6(C)[C@H]5CC[C@]34C)N2C1` [Chaconine, chaconine, reference compound], the figures for the “Percentage of larval survival” value in experiment [1] (0.002 mM in artificial medium), in experiment [1] (0.02 mM in artificial medium) and in experiment [1] (0.2 mM in artificial medium) were 72a %, 70a % and 52b %, respectively.
Regarding `C[C@H]1CCC2[C@@H](C)C3C(CC4C5CC=C6C[C@@H](OCCCn7cc(CO[C@@H]8OC(CO)[C@@H](O)C(O)C8O)nn7)CC[C@]6(C)C5CC[C@@]43C)N2C1` (stereo partly drawn) [Compound 100, 3-O-{3-[4-(β-D-glucopyranosyloxymethyl)-1,2,3-triazol-1-yl]propyl}solanidine], the “aphicide activity on larvae compared with 0.2 mM solanidine” value in experiment [1] is listed as “lower activity than 0.2 mM solanidine”. Further, the “Percentage of larval survival” value in experiment [1] (0.002 mM in artificial medium) is 76a %; in experiment [1] (0.02 mM in artificial medium) it was 26% and 26b %; in experiment [1] (0.2 mM in artificial medium), 22% and 22c %. The “aphicide properties … compared with solanidine” value in experiment [1] is on record as “stronger than with solanidine”. Also, the “effect on reproduction in comparison” value in experiment [2] (0.02 mM) and in experiment [2] (0.2 mM) was “significantly reduce reproduction” in each case. Besides, the “activity on adult survival” value in experiment [3] (0.002 mM) is on record as “no significant activity”; in experiment [3] (0.02 mM), “no significant activity”; in experiment [3] (0.2 mM), “notable effect”. For the same compound, the results for the “Percentage of adult survival” value in experiment [3] (0.002 mM in artificial medium), in experiment [3] (0.02 mM in artificial medium) and in experiment [3] (0.2 mM in artificial medium) were 97a %, 81b % and 46c %, respectively. Moreover, the mortality at 200 µM in experiment [3] (Macrosiphum euphorbiae, 0.2 mM, read-out: mortality rate of adults) is 54%.
With `CC1O[C@@H](OCc2cn(CCCO[C@H]3CC[C@@]4(C)C(=CCC5C6CC7C([C@H](C)C8CC[C@H](C)CN78)[C@@]6(C)CCC54)C3)nn2)C(O)C(O)[C@H]1O` (stereo partly drawn) [Compound 102, 3-O-{3-[4-(α-L-rhamnopyranosyloxymethyl)-1,2,3-triazol-1-yl]propyl}solanidine], in experiment [1], the “aphicide activity on larvae compared with 0.2 mM solanidine” value was “lower activity than 0.2 mM solanidine”. The “Percentage of larval survival” value in experiment [1] (0.002 mM in artificial medium) was 84a %; in experiment [1] (0.02 mM in artificial medium), 32% and 32b %; in experiment [1] (0.2 mM in artificial medium) it was 6% and 6d %. In experiment [1], the “aphicide properties … compared with solanidine” value was “stronger than with solanidine”. Moreover, the “effect on reproduction in comparison” value in experiment [2] (0.02 mM) and in experiment [2] (0.2 mM) was “significantly reduce reproduction” in each case. In addition, the “activity on adult survival” value in experiment [3] (0.002 mM) is listed as “no significant aphicide activity”; in experiment [3] (0.02 mM), “marked effect on the survival of adults”; in experiment [3] (0.2 mM) it was “marked effect on the survival of adults”. For the same compound, the “Percentage of adult survival” value is 95a % in experiment [3] (0.002 mM in artificial medium), 67b % in experiment [3] (0.02 mM in artificial medium) and 7d % in experiment [3] (0.2 mM in artificial medium).
For the compound `C[C@H]1CC[C@@H]2[C@@H](C)[C@H]3[C@H](C[C@H]4[C@@H]5CC=C6C[C@@H](O[C@@H]7O[C@H](CO)[C@H](O)[C@H](O[C@@H]8O[C@H](CO)[C@@H](O)[C@H](O)[C@H]8O)[C@H]7O[C@H]7O[C@@H](C)[C@H](O)[C@@H](O)[C@H]7O)CC[C@]6(C)[C@H]5CC[C@]34C)N2C1` [Solanine, solanine, reference compound], the results for the “Percentage of larval survival” value in experiment [1] (0.002 mM in artificial medium), in experiment [1] (0.02 mM in artificial medium) and in experiment [1] (0.2 mM in artificial medium) were 82a %, 80a % and 64c %, respectively.

Broadly, the mortality is the share of the test organisms that died.

Values taken from patent publication US9663551B2, “Solanidine-derived compounds” (priority 2013, dated 2017).
